Measurements reported in article PMC10973839, “CHF6297: a novel potent and selective p38 MAPK inhibitor with robust anti-inflammatory activity and suitable for inhaled pulmonary administration as dry powder” (Frontiers in Pharmacology, 2024).
Like-named read-outs stand apart in the source and are kept apart here.

Tests used:
human p38α = target: T1, human p38α (Homo sapiens, UniProt Q16539); assay: KINOMEscan competition binding assay (DiscoverX), p38α; conditions: read-out: Kd (mean ± s.d.)
T1 construct: purchased DiscoverX
From the text: (§1) The KINOMEscan® platform (DiscoverX) was used, which uses a novel and proprietary active site-directed competition binding assay to quantitatively measure the interactions between human p38 isoforms and the target compound.

[1] = test system: IL-1β-induced neutrophil influx and IL-6 in BALF; assay: IL-1β-induced neutrophilia and IL-6 accumulation in BALF of rats; type: in vivo; conditions: for ED50: Rattus norvegicus, Neutrophil
Protocol: IL-1β is a potent proinflammatory agent that markedly induces lung neutrophilia when administered intratracheally in rats, and p38α MAPK is involved in IL-1β signaling in lung cells ([Laporte et al., 2000]). The dose–response curve and anti-inflammatory duration of action studies were carried out by delivering CHF6297 intratracheally through the DP-4M PennCentury insufflator as micronized dry powder (blended with lactose) at the doses of 0.1, 0.35, and 1 mg/kg, 1 h or 24 h before IL-1β challenge. Four hours after IL-1β challenge, BALF was collected for cell counting and IL-6 quantification.
For the experimental studies performed with IL-1β challenge, the first aliquot of BALF was centrifuged separately: the resulting supernatant was frozen at −80°C for IL-6 ELISA analysis.
Frozen cell-free BALFs were analyzed using an ELISA kit purchased from R&D Systems (Rat IL-6 ELISA Kit; Cat. No. SR6000B, Lot. 307537), according to the manufacturer’s instructions.

rat p38α = rat p38α (Rattus norvegicus, UniProt P70618); assay: AlphaScreen kinase activity assay, rat p38α; type: biochemical
human p38δ [2] = target: T2, human p38δ (Homo sapiens, UniProt O15264); assay: AlphaScreen kinase activity assay, human p38δ; type: biochemical
T2 construct: GST; purchased Invitrogen
T2 sequence (O15264 1-365): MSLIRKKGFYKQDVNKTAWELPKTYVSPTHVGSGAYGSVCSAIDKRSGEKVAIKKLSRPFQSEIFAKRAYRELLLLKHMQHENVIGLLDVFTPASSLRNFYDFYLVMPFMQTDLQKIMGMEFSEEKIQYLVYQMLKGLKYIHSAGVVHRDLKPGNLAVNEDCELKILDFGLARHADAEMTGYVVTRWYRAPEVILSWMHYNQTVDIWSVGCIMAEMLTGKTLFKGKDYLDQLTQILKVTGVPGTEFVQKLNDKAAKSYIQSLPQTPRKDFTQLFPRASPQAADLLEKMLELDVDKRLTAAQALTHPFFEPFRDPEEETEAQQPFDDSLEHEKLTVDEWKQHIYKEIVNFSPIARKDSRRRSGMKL
Protocol: (§2) The inhibitory activity of CHF6297 was determined using an AlphaScreen® (PerkinElmer)-based kinase activity assay as previously described ([Armani et al., 2022]). Kinase reactions consisted of 25 mM 4-(2-hydroxyethyl)-1-piperazine ethanesulfonic acid (HEPES), pH 7.5; 10 mM MgCl2; 100 μM Na3VO4; 2 mM DTT; 0.05 mg/mL Tween^TM 20; 100 pM solution of p38α, p38β, p38δ, or p38γ (Invitrogen); 1% DMSO; and 0.3 μg/mL ATF-2 fusion protein (New England Biolabs). Compounds were incubated under these conditions for 2 h, at 25°C, prior to the initiation of kinase activity by the addition of 250 μM ATP. […] Detection was performed by measuring luminescence following the addition of AlphaScreen donor beads (PerkinElmer, 6765300) and Protein A AlphaScreen acceptor beads (PerkinElmer, 6760137), both at a final concentration of 20 μg/mL. IC50 values were determined from concentration–response curves. […]
(§3) CHF6297 was tested in biochemical enzymatic assays to determine its potency as an inhibitor of human p38α (MAPK14) and of the other human p38 isoforms, p38β (MAPK11), p38γ ([…]), and p38δ ([…]) ([Armani et al., 2022]). Activity in the primary screening assay was determined using AlphaScreen technology, in which a peptide (ATF2) is phosphorylated by the appropriate GST-tagged p38 protein isoform in the presence of CHF6297 at concentrations from semi-logarithmic dilutions. […]

human p38δ [3] = target: T2, human p38δ; assay: KINOMEscan competition binding assay (DiscoverX), p38δ; conditions: read-out: Kd (mean ± s.d.)
From the text: as §1

human p38β (MAPK11) = target: T3, human p38β (MAPK11) (Homo sapiens, UniProt Q15759); assay: AlphaScreen kinase activity assay, human p38β; type: biochemical
T3 construct: GST; purchased Invitrogen
Protocol: as §2, §3

BEAS-2B = assay: TNF-α-evoked IL-8 release; type: cell-based, human; conditions: TNF-α 1 ng/mL; compared with the CSE-evoked assay
human p38α (MAPK14) = target: T4, human p38α (MAPK14) (Homo sapiens, UniProt Q16539); assay: AlphaScreen kinase activity assay, human p38α; type: biochemical
T4 construct: GST; purchased Invitrogen
Protocol: as §2, §3

human p38γ [4] = target: T5, human p38γ (Homo sapiens, UniProt P53778); assay: KINOMEscan competition binding assay (DiscoverX), p38γ; conditions: read-out: Kd (mean ± s.d.)
T5 construct: GST; purchased Invitrogen
T5 sequence (P53778 1-367): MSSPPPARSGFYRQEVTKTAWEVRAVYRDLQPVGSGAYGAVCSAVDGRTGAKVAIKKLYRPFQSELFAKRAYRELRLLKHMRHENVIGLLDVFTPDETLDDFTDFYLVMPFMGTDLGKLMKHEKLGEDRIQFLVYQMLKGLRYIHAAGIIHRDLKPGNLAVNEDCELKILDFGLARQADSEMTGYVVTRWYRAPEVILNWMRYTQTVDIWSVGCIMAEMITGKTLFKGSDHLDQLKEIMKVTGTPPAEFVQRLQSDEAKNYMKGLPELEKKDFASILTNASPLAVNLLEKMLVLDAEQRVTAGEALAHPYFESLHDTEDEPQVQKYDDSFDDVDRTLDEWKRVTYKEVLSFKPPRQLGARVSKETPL
From the text: as §1

human p38γ [5] = target: T5, human p38γ; assay: AlphaScreen kinase activity assay, human p38γ; type: biochemical
Protocol: as §2, §3

[6] = 0.35 mg/kg i.t., 24 h before IL-1β
[7] = 1 mg/kg i.t., 24 h before IL-1β
[8] = n = 3, read-out: IC50 (mean ± s.d.)

T3 sequence (Q15759 whole entry): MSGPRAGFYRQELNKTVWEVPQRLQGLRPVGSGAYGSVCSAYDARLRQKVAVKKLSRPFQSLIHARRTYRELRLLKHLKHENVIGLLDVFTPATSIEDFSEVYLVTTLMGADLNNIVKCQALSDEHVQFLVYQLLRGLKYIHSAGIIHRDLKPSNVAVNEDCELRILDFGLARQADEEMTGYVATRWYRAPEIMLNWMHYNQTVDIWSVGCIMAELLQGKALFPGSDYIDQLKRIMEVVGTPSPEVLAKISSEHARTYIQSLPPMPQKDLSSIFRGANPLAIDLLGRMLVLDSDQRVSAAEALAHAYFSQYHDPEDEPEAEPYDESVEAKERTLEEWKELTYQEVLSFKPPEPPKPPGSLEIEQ
Chain of rat p38α (P70618 whole entry): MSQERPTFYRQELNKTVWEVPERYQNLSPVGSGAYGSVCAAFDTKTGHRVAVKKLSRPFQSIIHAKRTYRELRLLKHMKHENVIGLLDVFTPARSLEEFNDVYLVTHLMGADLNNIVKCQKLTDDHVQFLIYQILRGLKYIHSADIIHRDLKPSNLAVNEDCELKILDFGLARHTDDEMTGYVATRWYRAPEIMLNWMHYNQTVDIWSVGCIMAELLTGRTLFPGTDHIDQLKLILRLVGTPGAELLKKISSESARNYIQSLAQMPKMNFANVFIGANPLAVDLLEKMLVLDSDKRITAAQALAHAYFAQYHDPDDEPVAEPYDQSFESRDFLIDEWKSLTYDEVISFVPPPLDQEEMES
T4 sequence (Q16539 whole entry): as the sequence (P70618 whole entry) above, with V17I, H48L, A263T, E321D, F332L counted along it
T1 sequence (Q16539 whole entry): as the sequence (P70618 whole entry) above, with V17I, H48L, A263T, E321D, F332L counted along it

For `C[C@H]1CCCCN1c1nnc2ccc(O[C@@H]3CC[C@H](NC(=O)Nc4cc(C(C)(C)C)nn4-c4cnn(CCN(C)C)c4)c4ccccc43)cn12` [CHF6297], the Kd (human p38α) was 0.24 ± 0.06 nM, the “IL-6 concentration in BAL fluid” value ([1]; 0.1 mg/kg i.t., 1 h before IL-1β) was 791 ± 131 pg/mL and the “IL-6 concentration in BAL fluid” value ([1]; 0.35 mg/kg i.t., 1 h before IL-1β) was 302 ± 58.34 pg/mL. For the same compound, the “IL-6 concentration in BAL fluid” value [1, 6] was 1,101 ± 253 pg/mL, the “neutrophils in BALF” value [1, 6] was 5.5 × 10^6 ± 814 neutrophils and the “neutrophils in BALF” value ([1]; 1 mg/kg i.t. dry powder, 1 h before IL-1β) was 2.3 × 10^6 ± 234 neutrophils. For the same compound, the “IL-6 concentration in BAL fluid” value ([1]; 1 mg/kg i.t., 1 h before IL-1β) was 404 ± 108 pg/mL, the “IL-6 concentration in BAL fluid” value [1, 7] was 337 ± 84 pg/mL and the “neutrophils in BALF” value [1, 7] was 2.98 × 10^6 ± 62 neutrophils. The ED50 ([1]; i.t. dry powder, 1 h before IL-1β, read-out: ED50, IL-1β-induced neutrophil influx) was 0.22 mg/kg, the ED50 ([1]; i.t., IL-1β challenge, read-out: ED50, increase in IL-6 levels in BALF) was 0.82 mg/kg and the “IC50 fold-difference vs. human p38α” value (rat p38α) was 3.5. The IC50 (rat p38α; [8]) was 0.5 ± 0.18 nM, the “IC50 fold-difference vs. human p38α” value (human p38δ [2]) was >7,000 and the IC50 (human p38δ [2]; [8]) was > 1000 nM. The Kd (human p38δ [3]) was > 1000 nM, the “IC50 fold-difference vs. human p38α” value (human p38β (MAPK11)) was 1.4 and the IC50 (human p38β (MAPK11); [8]) was 0.2 ± 0.017 nM. The “potency against IL-8 release evoked by TNF-α” value (BEAS-2B) was “comparable potency”, the “IC50 fold-difference vs. human p38α” value (human p38α (MAPK14)) was 1 and the IC50 (human p38α (MAPK14); [8]) was 0.14 ± 0.06 nM. The Kd (human p38γ [4]) was > 1000 nM, the “IC50 fold-difference vs. human p38α” value (human p38γ [5]) was 6,750 and the IC50 (human p38γ [5]; [8]) was 945 ± 58 nM.
